Test results from ChEMBL document CHEMBL3763146 (J Med Chem, 2016).

How the values were obtained:
[1] = molecular target: Cytochrome P450 2C9 (Homo sapiens, UniProt P11712); experiment: Inhibition of CYP2C9 in human liver microsomes assessed as diclofenac alpha'-hydroxylation; type: ADME
[2] = Intrinsic clearance in rhesus monkey liver microsomes; type: ADME, Macaca mulatta; conditions: read-out: CLH
[3] = Fraction unbound in rhesus monkey at 0.5 mg/kg, iv or 2 mg/kg, po; type: ADME, organism-based, Macaca mulatta; conditions: in vivo
[4] = molecular target: Beta-3 adrenergic receptor (Rattus norvegicus) (UniProt P26255); experiment: Agonist activity at rat beta3 adrenergic receptor expressed in CHO cells assessed as accumulation of cAMP after 30 mins by TR-FRET assay in presence of 40% serum relative to (R)-(-)-isoproterenol; type: functional, cell-based
[5] = Plasma clearance in rhesus monkey at 0.5 mg/kg, iv or 2 mg/kg, po; type: ADME, organism-based, Macaca mulatta
[6] = molecular target: T1, Cytochrome P450 3A4 (Homo sapiens, UniProt P08684); experiment: Inhibition of CYP3A4 in human liver microsomes assessed as testosterone 6beta-hydroxylation; type: ADME
[7] = molecular target: Voltage-gated inwardly rectifying potassium channel KCNH2 (Homo sapiens, UniProt Q12809); experiment: Binding affinity to human ERG channel
[8] = Plasma clearance in dog at 0.5 mg/kg, iv or 2 mg/kg, po; type: ADME, organism-based, Canis lupus familiaris
[9] = tested on: Rhesus monkey; experiment: Dose normalized total AUC in rhesus monkey at 2 mg/kg, po; type: ADME, organism-based, Macaca mulatta; conditions: in vivo
[10] = molecular target: Cytochrome P450 1A2 (Homo sapiens, UniProt P05177); experiment: Inhibition of CYP1A2 in human liver microsomes; type: ADME
[11] = molecular target: Nuclear receptor subfamily 1 group I member 2 (Homo sapiens, UniProt O75469); experiment: Activation of human PX receptor
[12] = tested on: Rattus norvegicus; experiment: Increase in detrusor muscle relaxation in iv infused Sprague-Dawley rat acetic acid-induced bladder hyperreflexia model assessed as decrease in micturition pressure measured over 30 to 45 mins; type: functional, organism-based
[13] = Half life in rat at 1 mg/kg, iv or 2 mg/kg, po; type: ADME, organism-based; conditions: in vivo
[14] = molecular target: Sodium-dependent serotonin transporter (Homo sapiens, UniProt P31645); experiment: Inhibition of human SERT expressed in HEK293 cells preincubated for 30 mins followed by fluorescent substrate addition measured after 30 mins by plate reader analysis; type: cell-based
[15] = Oral bioavailability in rhesus monkey at 2 mg/kg; type: ADME, organism-based, Macaca mulatta; conditions: in vivo
[16] = Solubility of the compound in fed-simulated intestinal fluid; type: ADME; conditions: fed-state simulated intestinal fluid
[17] = tested on: Rattus norvegicus; experiment: Dose normalized total AUC in rat at 2 mg/kg, po; type: ADME, organism-based; conditions: in vivo
[18] = molecular target: Beta-3 adrenergic receptor (Homo sapiens, UniProt P13945); experiment: Agonist activity at human adrenergic beta3 receptor expressed in CHO cells assessed as accumulation of cAMP after 30 mins by TR-FRET assay in presence of 40% serum relative to (R)-(-)-isoproterenol; type: functional, cell-based
[19] = Half life in cynomolgus monkey at 0.5 mg/kg, iv or 2 mg/kg, po; type: ADME, organism-based, Macaca fascicularis; conditions: in vivo
[20] = molecular target: Voltage-dependent L-type calcium channel subunit alpha-1C (Homo sapiens, UniProt Q13936); experiment: Displacement of [3H]-diltiazem from human Cav1.2 channel
[21] = tested on: Rattus norvegicus; experiment: Increase in circulating free fatty acid level in iv infused Sprague-Dawley rat after 45 mins by liquid chromatography-tandem mass spectrometric analysis; type: functional
[22] = Drug recovery in bile duct cannulated rat urine at 5 mg/kg, iv measured over 48 hrs; type: ADME, organism-based; conditions: read-out: Drug recovery
[23] = molecular target: Beta-3 adrenergic receptor (Rattus norvegicus) (UniProt P26255); experiment: Agonist activity at rat beta3 adrenergic receptor expressed in CHO cells assessed as accumulation of cAMP after 30 mins by TR-FRET assay relative to (R)-(-)-isoproterenol; type: functional, cell-based
[24] = Drug recovery in bile duct cannulated rat at 10 mg/kg, po measured over 48 hrs; type: ADME, organism-based; conditions: in vivo, read-out: Drug recovery
[25] = Fraction unbound in dog at 0.5 mg/kg, iv or 2 mg/kg, po; type: ADME, organism-based, Canis lupus familiaris; conditions: in vivo
[26] = tested on: Canis familiaris; experiment: Unbound clearance in dog at 0.5 mg/kg, iv or 2 mg/kg, po; type: ADME, organism-based, Canis lupus familiaris; conditions: in vivo
[27] = tested on: Rhesus monkey; experiment: Dose normalized fAUC in rhesus monkey at 2 mg/kg, po; type: ADME, organism-based, Macaca mulatta; conditions: in vivo
[28] = Drug recovery in bile duct cannulated rat feces at 5 mg/kg, iv measured over 48 hrs; type: ADME, organism-based; conditions: faeces, read-out: Drug recovery
[29] = tested on: Canis familiaris; experiment: Dose normalized total AUC in dog at 2 mg/kg, po; type: ADME, organism-based, Canis lupus familiaris; conditions: in vivo
[30] = molecular target: Sodium channel protein type 2 subunit alpha (Homo sapiens, UniProt Q99250); experiment: Inhibition of human Nav1.2 channel expressed in Xenopus oocytes by two-intracellular microelectrode voltage clamp method; type: cell-based
[31] = Induction of phospholidosis in human HepG2 cells incubated overnight by […] in presence of fluorescent labeled phospholipid probe NBD-PE; type: cell-based; conditions: read-out: A50
[32] = Stability in human plasma assessed as parent compound remaining at 24 hrs by LC-MS analysis; type: ADME, cell-free; conditions: read-out: Stability
[33] = tested on: Rattus norvegicus; experiment: Increase in detrusor muscle relaxation in iv infused Sprague-Dawley rat acetic acid-induced bladder hyperreflexia model assessed as increase in functional bladder capacity measured over 30 to 45 mins; type: organism-based
[34] = Stability in dog plasma assessed as parent compound remaining at 24 hrs by LC-MS analysis; type: ADME, cell-free, Canis lupus familiaris; conditions: read-out: Stability
[35] = Fraction unbound in cynomolgus monkey at 0.5 mg/kg, iv or 2 mg/kg, po; type: ADME, organism-based, Macaca fascicularis; conditions: in vivo
[36] = tested on: Cynomolgus monkey; experiment: Toxicity in cynomolgus monkey assessed as effect on electrocadiograms measured up to 9 months; type: organism-based, Macaca fascicularis; conditions: in vivo
[37] = Solubility of the compound in buffer at pH <= […]; type: physicochemical
[38] = molecular target: Beta-3 adrenergic receptor (Macaca mulatta, UniProt Q28524); experiment: Agonist activity at rhesus monkey beta3 adrenergic receptor expressed in CHO cells assessed as accumulation of cAMP after 30 mins by TR-FRET assay; type: functional, cell-based
[39] = Fraction unbound in rat at 1 mg/kg, iv or 2 mg/kg, po; type: ADME, organism-based; conditions: in vivo
[40] = Oral bioavailability in rat at 2 mg/kg; type: ADME, organism-based; conditions: in vivo
[41] = Intrinsic clearance in rat liver microsomes; type: ADME; conditions: read-out: CLH
[42] = Distribution coefficient, logD of the compound at pH 7.4; type: physicochemical; conditions: octanol/water
[43] = organism: Rattus norvegicus; experiment: Toxicity in Sprague-Dawley rat assessed as postmortem parameters measured up to 6 months; type: organism-based; conditions: in vivo
[44] = tested on: Rattus norvegicus; experiment: Dose normalized fAUC in rat at 2 mg/kg, po; type: ADME, organism-based; conditions: in vivo
[45] = molecular target: Beta-3 adrenergic receptor (Rattus norvegicus, UniProt P26255); experiment: Agonist activity at rat beta3 adrenergic receptor expressed in CHO cells assessed as accumulation of cAMP after 30 mins by TR-FRET assay; type: functional, cell-based
[46] = molecular target: Beta-1 adrenergic receptor (Homo sapiens, UniProt P08588)
Description: Displacement of [125]I-cyanopindolol from recombinant human beta1 adrenergic receptor after 1 hr by scintillation counting method

[47] = tested on: Canis familiaris; experiment: Dose normalized fAUC in dog at 2 mg/kg, po; type: ADME, organism-based, Canis lupus familiaris; conditions: in vivo
[48] = molecular target: T1, Cytochrome P450 3A4; experiment: Induction of CYP3A4 activity in human hepatocytes up to 10 uM; type: ADME, cell-based, Hepatocyte
[49] = Solubility of the compound in fasted-simulated intestinal fluid; type: ADME; conditions: fasted-state simulated intestinal fluid
[50] = Drug recovery in bile duct cannulated rat at 5 mg/kg, iv measured over 48 hrs; type: ADME, organism-based; conditions: in vivo, read-out: Drug recovery

T1 sequence (P08684 whole entry): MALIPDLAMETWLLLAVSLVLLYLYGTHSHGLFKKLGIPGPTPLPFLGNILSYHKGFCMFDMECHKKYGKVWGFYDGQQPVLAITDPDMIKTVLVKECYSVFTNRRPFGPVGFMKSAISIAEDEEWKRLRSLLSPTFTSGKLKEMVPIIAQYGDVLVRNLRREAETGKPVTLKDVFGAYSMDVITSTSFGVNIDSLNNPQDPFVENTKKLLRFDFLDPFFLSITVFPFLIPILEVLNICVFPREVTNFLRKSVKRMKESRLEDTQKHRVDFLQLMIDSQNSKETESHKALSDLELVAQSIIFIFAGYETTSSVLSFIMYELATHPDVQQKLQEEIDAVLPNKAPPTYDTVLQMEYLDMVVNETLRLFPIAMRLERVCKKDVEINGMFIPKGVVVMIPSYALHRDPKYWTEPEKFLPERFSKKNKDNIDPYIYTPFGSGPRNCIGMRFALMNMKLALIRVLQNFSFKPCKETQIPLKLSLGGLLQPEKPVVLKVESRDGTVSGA
Sequence of Beta-3 adrenergic receptor (Rattus norvegicus) (P26255 whole entry): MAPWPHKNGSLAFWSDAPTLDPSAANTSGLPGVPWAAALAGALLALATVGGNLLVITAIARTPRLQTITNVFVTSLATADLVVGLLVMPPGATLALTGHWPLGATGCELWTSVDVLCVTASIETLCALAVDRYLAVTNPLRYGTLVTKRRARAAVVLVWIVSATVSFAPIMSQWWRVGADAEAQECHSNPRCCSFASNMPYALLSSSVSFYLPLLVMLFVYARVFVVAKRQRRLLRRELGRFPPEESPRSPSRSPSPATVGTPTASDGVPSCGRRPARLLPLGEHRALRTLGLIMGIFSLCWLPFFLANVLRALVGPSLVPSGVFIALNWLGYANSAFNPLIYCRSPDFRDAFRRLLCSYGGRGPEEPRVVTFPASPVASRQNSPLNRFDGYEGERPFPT
Sequence of Cytochrome P450 2C9 (P11712 whole entry): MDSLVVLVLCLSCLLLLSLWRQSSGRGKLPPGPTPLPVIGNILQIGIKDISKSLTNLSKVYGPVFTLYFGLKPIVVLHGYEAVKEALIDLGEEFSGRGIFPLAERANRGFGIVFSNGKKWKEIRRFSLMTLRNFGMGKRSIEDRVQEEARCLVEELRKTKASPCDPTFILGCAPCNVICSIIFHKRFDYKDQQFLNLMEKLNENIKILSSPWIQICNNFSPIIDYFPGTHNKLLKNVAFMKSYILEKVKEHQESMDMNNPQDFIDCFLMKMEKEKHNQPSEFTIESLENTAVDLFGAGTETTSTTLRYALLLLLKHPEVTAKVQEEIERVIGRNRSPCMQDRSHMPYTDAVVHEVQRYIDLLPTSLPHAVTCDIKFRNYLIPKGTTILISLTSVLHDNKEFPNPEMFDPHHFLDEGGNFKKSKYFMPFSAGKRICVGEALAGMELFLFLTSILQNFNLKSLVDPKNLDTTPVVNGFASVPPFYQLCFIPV
Sequence of Beta-3 adrenergic receptor (Macaca mulatta, UniProt Q28524) (Q28524 whole entry): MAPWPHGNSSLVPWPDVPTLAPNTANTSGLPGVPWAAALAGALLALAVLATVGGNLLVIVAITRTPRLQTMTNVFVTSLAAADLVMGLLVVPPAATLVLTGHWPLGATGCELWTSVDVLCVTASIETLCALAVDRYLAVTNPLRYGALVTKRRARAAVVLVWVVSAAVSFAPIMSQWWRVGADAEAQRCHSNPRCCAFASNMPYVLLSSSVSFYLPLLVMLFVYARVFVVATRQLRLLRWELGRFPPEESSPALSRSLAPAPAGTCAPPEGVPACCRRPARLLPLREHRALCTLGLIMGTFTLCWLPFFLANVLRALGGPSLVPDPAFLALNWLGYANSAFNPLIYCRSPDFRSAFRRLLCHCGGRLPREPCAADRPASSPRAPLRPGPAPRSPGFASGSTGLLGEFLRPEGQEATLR
Sequence of Beta-3 adrenergic receptor (Homo sapiens, UniProt P13945) (P13945 whole entry, looked up): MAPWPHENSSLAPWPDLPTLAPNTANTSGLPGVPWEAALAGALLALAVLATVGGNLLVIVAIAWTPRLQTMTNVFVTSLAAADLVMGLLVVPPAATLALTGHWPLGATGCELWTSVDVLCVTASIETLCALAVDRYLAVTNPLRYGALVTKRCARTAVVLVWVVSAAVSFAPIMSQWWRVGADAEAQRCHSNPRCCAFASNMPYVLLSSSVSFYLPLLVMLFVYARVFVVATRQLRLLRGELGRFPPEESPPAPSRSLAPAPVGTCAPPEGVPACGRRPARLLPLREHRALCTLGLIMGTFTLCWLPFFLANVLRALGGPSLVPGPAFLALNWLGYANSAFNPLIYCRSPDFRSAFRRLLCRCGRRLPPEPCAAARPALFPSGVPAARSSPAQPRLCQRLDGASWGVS
Sequence of Sodium channel protein type 2 subunit alpha (Q99250 whole entry, looked up): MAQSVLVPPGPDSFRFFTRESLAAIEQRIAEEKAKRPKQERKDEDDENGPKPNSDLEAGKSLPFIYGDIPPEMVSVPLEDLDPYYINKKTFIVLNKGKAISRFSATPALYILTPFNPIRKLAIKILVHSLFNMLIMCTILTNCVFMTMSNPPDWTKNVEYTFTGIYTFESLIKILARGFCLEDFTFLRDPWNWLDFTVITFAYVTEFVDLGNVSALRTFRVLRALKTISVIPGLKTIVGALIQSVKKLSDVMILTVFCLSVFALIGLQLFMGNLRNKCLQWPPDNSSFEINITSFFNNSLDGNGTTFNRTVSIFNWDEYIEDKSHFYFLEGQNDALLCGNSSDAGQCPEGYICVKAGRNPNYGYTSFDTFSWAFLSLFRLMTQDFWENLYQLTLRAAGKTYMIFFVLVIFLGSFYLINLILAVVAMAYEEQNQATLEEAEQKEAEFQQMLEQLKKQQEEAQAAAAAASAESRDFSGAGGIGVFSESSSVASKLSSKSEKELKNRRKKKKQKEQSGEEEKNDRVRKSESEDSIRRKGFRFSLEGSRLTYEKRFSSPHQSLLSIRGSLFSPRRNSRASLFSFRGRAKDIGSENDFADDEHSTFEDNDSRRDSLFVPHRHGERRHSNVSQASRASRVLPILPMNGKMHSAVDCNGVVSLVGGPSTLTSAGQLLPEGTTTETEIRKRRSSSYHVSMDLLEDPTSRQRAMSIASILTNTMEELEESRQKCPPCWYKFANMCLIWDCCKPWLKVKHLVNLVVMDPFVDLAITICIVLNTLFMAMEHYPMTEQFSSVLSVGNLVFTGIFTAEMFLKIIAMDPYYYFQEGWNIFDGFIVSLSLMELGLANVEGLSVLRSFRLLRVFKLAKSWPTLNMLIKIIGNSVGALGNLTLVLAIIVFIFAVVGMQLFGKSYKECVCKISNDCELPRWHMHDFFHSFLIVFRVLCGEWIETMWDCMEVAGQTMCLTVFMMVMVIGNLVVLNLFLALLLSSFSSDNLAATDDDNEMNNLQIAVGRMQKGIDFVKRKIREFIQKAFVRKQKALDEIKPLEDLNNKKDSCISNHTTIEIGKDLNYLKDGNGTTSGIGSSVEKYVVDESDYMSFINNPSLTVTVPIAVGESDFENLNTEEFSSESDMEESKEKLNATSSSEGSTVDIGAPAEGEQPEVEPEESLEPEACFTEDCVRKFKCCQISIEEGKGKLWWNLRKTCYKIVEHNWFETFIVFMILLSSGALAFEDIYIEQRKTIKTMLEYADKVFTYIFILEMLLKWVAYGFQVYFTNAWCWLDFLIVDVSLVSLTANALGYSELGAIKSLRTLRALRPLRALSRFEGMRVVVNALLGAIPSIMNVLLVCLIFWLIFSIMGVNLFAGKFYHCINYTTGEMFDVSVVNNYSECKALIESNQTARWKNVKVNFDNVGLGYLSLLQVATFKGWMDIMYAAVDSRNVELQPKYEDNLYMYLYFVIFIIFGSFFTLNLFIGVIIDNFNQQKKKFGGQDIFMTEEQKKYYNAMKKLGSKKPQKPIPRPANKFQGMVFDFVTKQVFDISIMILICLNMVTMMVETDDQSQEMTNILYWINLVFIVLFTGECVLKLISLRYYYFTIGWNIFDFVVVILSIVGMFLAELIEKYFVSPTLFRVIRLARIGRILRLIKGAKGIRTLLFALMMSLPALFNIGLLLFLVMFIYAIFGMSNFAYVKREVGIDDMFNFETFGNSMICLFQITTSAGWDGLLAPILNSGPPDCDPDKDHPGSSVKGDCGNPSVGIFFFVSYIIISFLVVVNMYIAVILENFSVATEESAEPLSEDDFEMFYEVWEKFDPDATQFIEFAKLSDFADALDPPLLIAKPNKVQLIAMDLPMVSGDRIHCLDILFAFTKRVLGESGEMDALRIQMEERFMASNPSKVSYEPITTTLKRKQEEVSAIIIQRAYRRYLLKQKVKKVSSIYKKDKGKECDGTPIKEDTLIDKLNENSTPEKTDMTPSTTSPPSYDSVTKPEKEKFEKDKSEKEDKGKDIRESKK
Sequence of Cytochrome P450 1A2 (P05177 whole entry): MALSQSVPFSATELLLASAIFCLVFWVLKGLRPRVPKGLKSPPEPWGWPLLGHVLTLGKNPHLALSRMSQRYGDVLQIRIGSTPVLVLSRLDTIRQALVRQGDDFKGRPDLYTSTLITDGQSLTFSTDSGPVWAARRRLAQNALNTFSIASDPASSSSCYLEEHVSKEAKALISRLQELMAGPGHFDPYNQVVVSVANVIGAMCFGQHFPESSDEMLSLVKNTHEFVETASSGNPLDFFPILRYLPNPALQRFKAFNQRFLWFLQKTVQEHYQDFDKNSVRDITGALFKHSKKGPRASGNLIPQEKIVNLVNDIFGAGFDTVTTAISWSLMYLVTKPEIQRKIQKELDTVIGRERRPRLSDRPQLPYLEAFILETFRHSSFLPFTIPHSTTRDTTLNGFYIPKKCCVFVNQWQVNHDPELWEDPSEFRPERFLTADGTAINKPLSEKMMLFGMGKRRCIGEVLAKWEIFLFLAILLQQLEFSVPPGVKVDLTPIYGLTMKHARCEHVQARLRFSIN
Sequence of Beta-3 adrenergic receptor (Rattus norvegicus, UniProt P26255) (P26255 whole entry): as the sequence (P26255 whole entry) above

IC50 [1]: > 100 µM
CLint scaled [2]: 18 mL/min/kg
fraction unbound [3]: 0.49
max activation [4]: 89%
clearance [5]: 16 mL/min/kg
IC50 [6]: > 100 µM
clearance [8]: 15 mL/min/kg
AUC/dose [9]: 540 nM·h/mg/kg
IC50 [10]: > 100 µM
EC50 [11]: > 30 µM
half-life [13]: 7 h
IC50 [14]: > 10 µM
bioavailability [15]: 23%
solubility [16]: > 4000 µg/mL
AUC/dose [17]: 540 nM·h/mg/kg
max activation [18]: 101%
half-life [19]: 7 h
dose excreted at 48 h [22]: 37%
max activation [23]: 83%
dose excreted at 48 h [24]: 87%
fraction unbound [25]: 0.41
CL free [26]: 37 mL/min/kg
fAUC/dose [27]: 260 nM·h/mg/kg
dose excreted at 48 h [28]: 13%
AUC/dose [29]: 1200 nM·h/mg/kg
IC50 [30]: > 30 µM
AC50 [31]: > 70 µM
remaining at 24 h [32]: 100%
remaining at 24 h [34]: 100%
fraction unbound [35]: 0.58
solubility [37]: > 4000 µg/mL
EC50 [38]: 0.00057 µM
fraction unbound [39]: 0.21
bioavailability [40]: 20%
CLint scaled [41]: 20 mL/min/kg
logD [42]: 0.9
fAUC/dose [44]: 113 nM·h/mg/kg
EC50 [45]: 0.086 µM
IC50 [46]: > 20 µM
fAUC/dose [47]: 490 nM·h/mg/kg
Activity [48]: Not Active
solubility [49]: > 4000 µg/mL
dose excreted at 48 h [50]: 83%
SMILES: O=C(Nc1ccc(C[C@@H]2CC[C@H]([C@H](O)c3ccccc3)N2)cc1)[C@@H]1CCc2nccc(=O)n21 [VIBEGRON]
IC50 [7]: > 30 µM
Activity [12]: Dose-dependent effect
IC50 [20]: > 30 µM
Activity [21]: Dose-dependent effect
minimal effective dose ([21]; 0.75 h, read-out: MED): 0.3 mg/kg
Activity [33]: Dose-dependent effect
Activity [36]: Non-toxic
Activity [43]: Non-toxic
